Numbered stars: 1 amine (or outer) side, 2 acyl side, 3 side chain; on linkers, the order of the positions; unused ones are H or OH. Bridge positions count the residues as written; N and C are the ends. Square brackets hold non-standard residues; d marks the D form. Peptide text beside a SMILES is read from it. I, II: the chains in the order shown. Actinocin(9to1) = Cc1c2oc3c(C)ccc(C(=O)[*:1])c3nc-2c(C(=O)[*:2])c(N)c1=O; NMeV = CN[C@H](C(=O)O)C(C)C; Sar = CNCC(=O)O
Tests used:
[1] = target: T1, hap-ER chimaeric receptor (Homo sapiens, UniProt P10826, A104S/D127T/F149Y/F89A/G110A/H125P/I121D/K118G/K128N/K94Y/M120N/N119H/N129Q/N133D/N138K/Q146R/Q92N/R113K/R126A/R139S/S103W/S95A/T123M/T136R/V131T/V135N/Y142A); assay: hap-ER chimaera trans-activation of oestrogen-responsive reporter gene (vit-tk-CAT); format: cell-based; conditions: RA at physiological concentrations
T1 construct: expressed in transfected cells
T1 sequence (P10826 1-448 isoform P10826-2 F82A/Q85N/K87Y/S88A/S96W/A97S/G103A/R106K/K111G/N112H/M113N/I114D/T116M/H118P/R119A/D120T/K121N/N122Q/V124T/N126D/V128N/T129R/N131K/R132S/Y135A/Q139R/F142Y): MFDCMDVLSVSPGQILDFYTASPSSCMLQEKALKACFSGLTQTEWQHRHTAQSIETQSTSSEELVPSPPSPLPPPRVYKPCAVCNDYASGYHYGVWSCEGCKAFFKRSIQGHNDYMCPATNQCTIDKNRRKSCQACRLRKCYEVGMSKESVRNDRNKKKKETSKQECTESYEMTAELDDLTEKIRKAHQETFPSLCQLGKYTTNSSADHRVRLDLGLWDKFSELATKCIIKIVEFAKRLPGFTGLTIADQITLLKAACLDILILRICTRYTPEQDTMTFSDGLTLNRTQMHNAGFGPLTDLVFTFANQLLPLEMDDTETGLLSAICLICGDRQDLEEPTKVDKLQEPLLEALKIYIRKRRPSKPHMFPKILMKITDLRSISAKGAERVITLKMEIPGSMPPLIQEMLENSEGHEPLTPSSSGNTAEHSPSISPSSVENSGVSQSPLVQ
Experimental: To test the possibility that the hap protein might also be a retinoid receptor, a chimaeric receptor was created by replacing the putative DNA binding domain of hap with that of the human oestrogen receptor (ER). The resulting hap-ER chimaera was then tested for its ability to trans-activate an oestrogen-responsive reporter gene (vit-tk-CAT) in the presence of possible receptor ligands. […] See Nature, 332:850-853 (1988).

[2] = system: RAR β mRNAs in PLC/PRF/5 cells; format: cell-based, human
Experimental: (§1) More particularly, semi-confluent cells were grown for 6 hr in charcoal stripped medium and retinoic acid was then added to the medium at various concentrations (10^−10 M to 10^−6 M) for 4 hr. Control cells were treated with ethanol (E). Northern-blotting was performed as described in connection with FIG. 9, except that 30 μg of total RNA was used.
(§2) Exposure time was 12 hr for the β probe (FIG. 10B, lower panel) and four days for the α probe (FIG. 10B, upper panel).
(§3) Northern-blotting was carried on using 30 ug of total RNA. […] Exposure times were the same as for the experiments in FIG. 10.
(§4) Human tissue samples were obtained from early autopsies and kept at −80° C. prior to extraction. The HEPG 2 and PLC/PRF/5 hepatoma cell-lines were grown in Dulbecco's modified Eagle's medium with 10% fetal calf serum, glutamine, and antibiotics, in 5% CO2.
(§5) The RNA was prepared by the hot phenol procedure (Maniatis et al., 1982). Poly(A)^+ mRNA was prepared by oligo(dT)-cellulose ilchromatography. For Northern-blot analysis, total RNA (30 μg) or poly(A)^+ mRNA (5 μg) was denatured by glyoxal and fractionated on a 1.2% agarose gel (Maniatis et al., 1982). The nucleic acid was transferred to nylon membranes (Amersham) by blotting and attached by UV exposure plus baking.
(§6) The two cDNA inserts were subcloned into M13 and used to generate high specific activity (greater than 10^9 c.p.m./μg) single-stranded probes by elongation of a sequencing primer with ^32P labelled dTTP (3000 Ci/mmol) and unlabelled nucleotides by Klenow polymerase. The resulting double-stranded DNA was digested using a unique site in the vector, fractioned on a urea/acrylamide sequencing gel, and the labelled single-stranded insert electroeluted. These probes (5×10^6 cpm/ml) were hybridized to the filters in 7% (w/v) sodium dodecyl sulfate (SDS), 0.5 M NaPO4 pH 6.5, 1 mM ethylenediaminetetraacetate (EDTA), and 1 mg/ml bovine serum albumin (BSA) at 68° C. overnight. The filters were washed in 1% SDS, 50 mM NaCl, 1 mM EDTA at 68° C. for 10 min and autoradiographed at −70° C. using Kodak XAR films and intensifying screens. A mouse β actin probe was used to rehybridize the filters and check that all lanes contained equal amounts of RNA.
The relative intensity of hybridization signals in Northern-blotting and run-on experiments was estimated using a Hoefer scanning densitometer and the appropriate computer program.

[3] = system: RAR α mRNAs in PLC/PRF/5 cells; assay: Northern blot of RAR α mRNAs in PLC/PRF/5 cells; format: cell-based, human; conditions: RA up to 10^−6 M
Experimental: as §1, §2, §3, §4
The RNA was prepared by the hot phenol procedure (Maniatis et al., 1982). Poly(A)^+ mRNA was prepared by oligo(dT)-cellulose ilchromatography. For Northern-blot analysis, total RNA (30 μg) or poly(A)^+ mRNA (5 μg) was denatured by glyoxal and fractionated on a 1.2% agarose gel (Maniatis et al., 1982). The nucleic acid was transferred to nylon membranes (Amersham) by blotting and attached by UV exposure plus baking. […]

[4] = system: RAR β mRNAs in HEPG2 hepatoma cell-line; assay: Northern blot of RAR β mRNAs in HEPG2 cells; format: cell-based, human
Experimental: as §4, §5
as §6, with “The filters were washed in 1% SDS, 50 mM NaCl, 1 mM EDTA at 68° C. for 10 min and autoradiographed at −70° C. using Kodak XAR films and intensifying screens. A mouse β actin probe was used to rehybridize the filters and check that all lanes contained equal amounts of RNA.” left out

[5] = system: transglutaminase expression in HL60 cells; conditions: read-out: ED 50 of RA-dependent transglutaminase expression; cited from earlier work
RAR β = conditions: cited from earlier work
[6] = system: nuclear extracts from HeLa cells; assay: T3 binding positive control with HeLa nuclear extracts
Excerpt: The results were-negative as well when the experiment was repeated with (3H)-retinol, -retinoic acid, and -testosterone, which represent three putative ligands for hap whose receptors have not yet been cloned. Although it cannot excluded that hap may encode a hormone independent transcriptional activator, it is more likely that hap product, i.e. the hap protein, is α receptor for a presently unidentified hormone.

[7] = target: T2, in vitro translated hap polypeptide (Homo sapiens, UniProt P10826); assay: Hormone-binding assay with in vitro translated hap polypeptide; conditions: reticulocyte lysate; for specific binding of (125I)-labelled thyroid hormone to in vitro translated hap polypeptide: 0° C., filtration; for binding of (3H)-labelled ligand to in vitro translated hap polypeptide: overnight 0° C., Dextran coated charcoal
T2 construct: made in house; host or cells: rabbit reticulocyte lysate (in vitro translation of T7 transcripts of pCOD20)
T2 sequence (P10826 1-448 isoform P10826-2): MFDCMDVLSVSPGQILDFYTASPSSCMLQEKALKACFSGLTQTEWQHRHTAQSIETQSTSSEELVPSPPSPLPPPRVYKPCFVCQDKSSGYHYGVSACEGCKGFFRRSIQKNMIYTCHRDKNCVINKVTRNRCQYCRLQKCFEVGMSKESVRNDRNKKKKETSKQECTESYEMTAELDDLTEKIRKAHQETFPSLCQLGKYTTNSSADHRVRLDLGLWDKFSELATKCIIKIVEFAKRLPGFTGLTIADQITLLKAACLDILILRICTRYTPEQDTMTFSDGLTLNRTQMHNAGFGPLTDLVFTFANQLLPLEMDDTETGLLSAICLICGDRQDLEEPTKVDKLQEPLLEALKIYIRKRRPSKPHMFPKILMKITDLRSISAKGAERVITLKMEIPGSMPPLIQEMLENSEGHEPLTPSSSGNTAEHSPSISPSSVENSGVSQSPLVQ
Excerpt: The ability to express functional receptors in vitro from cloned c-erbA/steroid receptor genes led to the use of an in vitro translation assay to identify a putative hap ligand.
The coding region of hap was cloned into pTZ18 plasmid vector to allow in vitro transcription with the T7 RNA polymerase and subsequent translation in reticulocyte lysates. More particularly, ^35S-methionine-labelled products synthesized using T7 polymerase-catalysed RNA transcripts were separated on a 12% SDS-polyacrylamide gel, which was fluorographed. (DMSO-PPO). The lanes in FIG. 5 are as follows:
pCOD20 and pCOD14 were linearized with HindIII. Capped mRNA was generated using 5 ug of DNA, 5 uM rNTP, 25 mM DTT, 100 U RNAsin (Promega), 50 U T7 Pol (Genofit) in 40 mM Tris pH 8, 8mM MgCl2, 2 mM spermidine, 50 mM NaCl, in 100 ul at 37° C. Capping was performed by omitting GTP and adding CAP (m^7 G (5′) ppp (5′) G) (Pharmacia) for the 15 first minutes of the reaction.
After at least 2 h of incubation at 0° C., free was separated from bound by filtration through millipore HAWP 02500 filters using 10 ml of ice cold buffer. For testosterone, retinol, retinoic acid 10 ul of lysate were added to 45 lambda of 20 mM Tris pH 7.3, 1 mM EDTA, 50 mM NaCl, 2 mM beta-mercaptoethanol and […], […] or […] (81 ci/mmol; 60 Ci/mmol; 46 Ci/mmol; Amersham). After an overnight incubation at 0° C. free was separated from bound by Dextran coated charcoal (0.5% Norit A−0.05% T70) and centrifugation. All experiments were performed in duplicates and parallel experiments were performed with 100 fold excess corresponding cold hormone.

SMILES: CC1=C(/C=C/C(C)=C/C=C/C(C)=C/C(=O)O)C(C)(C)CCC1 [RA, All-trans-retinoic acid]
- inducing the expression of the reporter gene by the hap-ER chimaeric receptor [1]: effective
- latency of induction of RAR β mRNAs ([2]; RA 10^−6 M): one
- time after which induction of RAR β mRNAs is complete ([2]; RA 10^−6 M): four
- magnitude of the RA-induced upregulation of RAR β mRNAs ([2]; densitometry of Northern blot, 4 hr): 10 fold
- effect on the level of RAR α mRNAs [3]: no effect
- RA-induced stimulation of the levels of RAR β mRNAs [4]: 50 fold
- EC50 [5]: 50 nM

SMILES: N[C@@H](Cc1cc(I)c(Oc2ccc(O)c(I)c2)c(I)c1)C(=O)O [T3, triiodothyronine]
- binding to nuclear extracts from HeLa cells [6]: detected

SMILES: N[C@@H](Cc1cc(I)c(Oc2cc(I)c(O)c(I)c2)c(I)c1)C(=O)O [T4, thyroxine]
- specific binding of (125I)-labelled thyroid hormone to in vitro translated hap polypeptide [7]: No specific fixation

SMILES: Cc1c2oc3c(C)ccc(C(=O)N[C@@H]4C(=O)N[C@H](C(C)C)C(=O)N5CCC[C@H]5C(=O)N(C)CC(=O)N(C)[C@@H](C(C)C)C(=O)O[C@@H]4C)c3nc-2c(C(=O)N[C@@H]2C(=O)N[C@H](C(C)C)C(=O)N3CCC[C@H]3C(=O)N(C)CC(=O)N(C)[C@@H](C(C)C)C(=O)O[C@@H]2C)c(N)c1=O [actinomycin D] (I: T[dV]P[Sar][NMeV] / II: T[dV]P[Sar][NMeV]; ester I:1-I:C, II:1-II:C; linker I:N-II:N via Actinocin(9to1))
- effect of inhibitor on the RA-induced increase in the levels of RAR β transcripts ([2]; RA 10^−6M, CH 10 μg/ml or AC 5 μg/ml, 4 hr): abolished

SMILES: CC1=C(/C=C/C(C)=C/C=C/C(C)=C/CO)C(C)(C)CCC1 [retinol]
- binding of (3H)-labelled ligand to in vitro translated hap polypeptide [7]: negative

SMILES: N[C@@H](Cc1ccc(Oc2cc(I)c(O)c(I)c2)c(I)c1)C(=O)O [reverse T3, 3,3′, 5′-triiodo-thyronine]
- specific binding of (125I)-labelled thyroid hormone to in vitro translated hap polypeptide [7]: No specific fixation

SMILES: C[C@]12CC[C@H]3[C@@H](CCC4=CC(=O)CC[C@@]43C)[C@@H]1CC[C@@H]2O [testosterone]
- binding of (3H)-labelled ligand to in vitro translated hap polypeptide [7]: negative
